In ChEMBL document CHEMBL4507270 (2021):

Experiments:
[1] = target: Serine/threonine-protein kinase BRSK2 (Homo sapiens) (UniProt Q8IWQ3)
[2] = target: Ribosomal protein S6 kinase alpha-3 (Homo sapiens) (UniProt P51812)
[3] = target: Mu-type opioid receptor (Homo sapiens, UniProt P35372); conditions: Compound concentration 10.0 uM
[4] = target: Mitogen-activated protein kinase kinase kinase 9 (Homo sapiens) (UniProt P80192)
[5] = target: Sigma intracellular receptor 2 (Homo sapiens, UniProt Q5BJF2); conditions: Compound concentration 10.0 uM
Sequence of Sigma intracellular receptor 2 (Q5BJF2 whole entry): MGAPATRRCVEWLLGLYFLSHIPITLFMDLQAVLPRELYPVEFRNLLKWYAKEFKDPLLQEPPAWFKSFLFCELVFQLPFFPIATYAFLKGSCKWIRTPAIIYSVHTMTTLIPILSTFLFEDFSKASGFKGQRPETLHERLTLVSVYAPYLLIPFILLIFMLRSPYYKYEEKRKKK

[6] = system: Tyrosine-protein kinase ABL1 (Homo sapiens), P00519 [M351T]
[7] = target: Aurora kinase A (Homo sapiens) (UniProt O14965)
[8] = target: Leukocyte tyrosine kinase receptor (Homo sapiens) (UniProt P29376)
[9] = target: Calcium/calmodulin-dependent protein kinase type 1D (Homo sapiens) (UniProt Q8IU85)
Sequence of Calcium/calmodulin-dependent protein kinase type 1D (Homo sapiens) (Q8IU85 whole entry, looked up): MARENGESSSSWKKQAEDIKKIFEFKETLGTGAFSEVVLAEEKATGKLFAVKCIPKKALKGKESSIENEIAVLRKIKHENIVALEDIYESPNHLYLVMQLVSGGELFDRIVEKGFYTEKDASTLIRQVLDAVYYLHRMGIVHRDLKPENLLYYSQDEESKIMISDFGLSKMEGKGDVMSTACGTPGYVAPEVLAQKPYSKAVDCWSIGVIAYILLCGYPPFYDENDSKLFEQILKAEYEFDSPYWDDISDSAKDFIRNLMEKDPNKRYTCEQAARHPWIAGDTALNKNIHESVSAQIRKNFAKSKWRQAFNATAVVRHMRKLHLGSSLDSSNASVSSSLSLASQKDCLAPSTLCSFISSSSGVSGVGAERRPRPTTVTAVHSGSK

[10] = target: Sodium-dependent noradrenaline transporter (Homo sapiens, UniProt P23975); conditions: Compound concentration 10.0 uM
[11] = target: Testis-specific serine/threonine-protein kinase 3 (Homo sapiens) (UniProt Q96PN8)
[12] = system: Epidermal growth factor receptor (Homo sapiens), P00533 [UNDEFINED MUTATION]
Sequence of Epidermal growth factor receptor (Homo sapiens), P00533 [UNDEFINED MUTATION] (P00533 whole entry, looked up, change not shown): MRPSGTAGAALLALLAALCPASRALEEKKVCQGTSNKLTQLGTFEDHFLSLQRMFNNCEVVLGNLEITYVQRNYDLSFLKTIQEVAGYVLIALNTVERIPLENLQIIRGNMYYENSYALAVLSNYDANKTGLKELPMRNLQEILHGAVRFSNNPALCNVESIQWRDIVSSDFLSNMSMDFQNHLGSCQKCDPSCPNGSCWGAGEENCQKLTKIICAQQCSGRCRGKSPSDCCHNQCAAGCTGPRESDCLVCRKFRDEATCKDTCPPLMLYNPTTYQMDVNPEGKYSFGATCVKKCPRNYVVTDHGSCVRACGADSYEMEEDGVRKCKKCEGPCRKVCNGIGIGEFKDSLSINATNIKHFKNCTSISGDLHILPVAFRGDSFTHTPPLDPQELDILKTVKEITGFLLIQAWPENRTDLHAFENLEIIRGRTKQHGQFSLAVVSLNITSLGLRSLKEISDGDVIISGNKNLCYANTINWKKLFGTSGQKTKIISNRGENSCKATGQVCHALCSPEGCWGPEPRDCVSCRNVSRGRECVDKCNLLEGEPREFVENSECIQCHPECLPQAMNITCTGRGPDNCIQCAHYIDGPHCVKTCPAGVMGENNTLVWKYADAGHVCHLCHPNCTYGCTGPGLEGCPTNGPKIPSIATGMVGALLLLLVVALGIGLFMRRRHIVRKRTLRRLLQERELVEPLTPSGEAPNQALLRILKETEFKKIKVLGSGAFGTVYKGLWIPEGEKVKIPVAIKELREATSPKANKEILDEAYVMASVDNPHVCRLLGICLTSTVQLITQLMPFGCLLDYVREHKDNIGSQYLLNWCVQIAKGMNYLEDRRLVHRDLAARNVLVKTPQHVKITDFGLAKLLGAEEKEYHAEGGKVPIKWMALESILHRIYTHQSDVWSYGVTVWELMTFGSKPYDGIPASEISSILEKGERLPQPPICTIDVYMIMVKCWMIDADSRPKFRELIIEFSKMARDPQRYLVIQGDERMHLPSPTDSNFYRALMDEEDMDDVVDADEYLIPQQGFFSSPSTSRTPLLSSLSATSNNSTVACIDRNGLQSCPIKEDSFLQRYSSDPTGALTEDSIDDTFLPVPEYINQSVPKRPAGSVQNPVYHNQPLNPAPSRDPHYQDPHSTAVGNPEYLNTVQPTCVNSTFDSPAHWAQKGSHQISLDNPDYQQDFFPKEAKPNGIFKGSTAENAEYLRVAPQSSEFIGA

[13] = target: Leucine-rich repeat serine/threonine-protein kinase 2 (Homo sapiens) (UniProt Q5S007)
[14] = target: Dual specificity mitogen-activated protein kinase kinase 5 (Homo sapiens) (UniProt Q13163)
Sequence of Dual specificity mitogen-activated protein kinase kinase 5 (Homo sapiens) (Q13163 whole entry): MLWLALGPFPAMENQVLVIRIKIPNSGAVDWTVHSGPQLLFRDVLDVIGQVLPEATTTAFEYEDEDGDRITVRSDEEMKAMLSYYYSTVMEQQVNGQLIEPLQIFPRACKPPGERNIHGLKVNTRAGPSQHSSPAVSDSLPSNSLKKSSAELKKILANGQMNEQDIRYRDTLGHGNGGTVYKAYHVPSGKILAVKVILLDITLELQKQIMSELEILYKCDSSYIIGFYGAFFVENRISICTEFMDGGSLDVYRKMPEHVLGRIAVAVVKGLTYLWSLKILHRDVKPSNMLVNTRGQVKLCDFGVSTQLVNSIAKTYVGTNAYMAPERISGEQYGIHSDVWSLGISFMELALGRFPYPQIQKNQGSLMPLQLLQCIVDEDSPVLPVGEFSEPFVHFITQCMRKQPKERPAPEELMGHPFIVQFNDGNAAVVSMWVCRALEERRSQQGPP

[15] = target: 5-hydroxytryptamine receptor 1B (Homo sapiens) (UniProt P28222); conditions: Compound concentration 10.0 uM
Sequence of 5-hydroxytryptamine receptor 1B (Homo sapiens) (P28222 whole entry): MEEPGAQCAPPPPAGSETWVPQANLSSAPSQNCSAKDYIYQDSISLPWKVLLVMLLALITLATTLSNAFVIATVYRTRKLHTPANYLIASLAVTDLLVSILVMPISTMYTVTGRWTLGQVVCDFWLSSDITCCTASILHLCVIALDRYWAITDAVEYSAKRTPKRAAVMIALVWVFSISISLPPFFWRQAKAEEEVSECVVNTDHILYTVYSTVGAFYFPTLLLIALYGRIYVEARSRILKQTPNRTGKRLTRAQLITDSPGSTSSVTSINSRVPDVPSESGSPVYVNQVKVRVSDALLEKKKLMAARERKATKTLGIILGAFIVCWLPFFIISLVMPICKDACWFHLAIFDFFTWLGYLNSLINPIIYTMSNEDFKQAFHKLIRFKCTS

[16] = target: 1-phosphatidylinositol 3-phosphate 5-kinase (Homo sapiens) (UniProt Q9Y2I7)
[17] = target: Serine/threonine-protein kinase NIM1 (Homo sapiens) (UniProt Q8IY84)
[18] = target: Phosphatidylinositol 4-kinase beta (Homo sapiens) (UniProt Q9UBF8)
[19] = target: Mitogen-activated protein kinase kinase kinase 10 (Homo sapiens) (UniProt Q02779)
[20] = target: Mitogen-activated protein kinase kinase kinase 3 (Homo sapiens) (UniProt Q99759)
[21] = target: Cytoplasmic tyrosine-protein kinase BMX (Homo sapiens) (UniProt P51813)
Sequence of Cytoplasmic tyrosine-protein kinase BMX (Homo sapiens) (P51813 whole entry): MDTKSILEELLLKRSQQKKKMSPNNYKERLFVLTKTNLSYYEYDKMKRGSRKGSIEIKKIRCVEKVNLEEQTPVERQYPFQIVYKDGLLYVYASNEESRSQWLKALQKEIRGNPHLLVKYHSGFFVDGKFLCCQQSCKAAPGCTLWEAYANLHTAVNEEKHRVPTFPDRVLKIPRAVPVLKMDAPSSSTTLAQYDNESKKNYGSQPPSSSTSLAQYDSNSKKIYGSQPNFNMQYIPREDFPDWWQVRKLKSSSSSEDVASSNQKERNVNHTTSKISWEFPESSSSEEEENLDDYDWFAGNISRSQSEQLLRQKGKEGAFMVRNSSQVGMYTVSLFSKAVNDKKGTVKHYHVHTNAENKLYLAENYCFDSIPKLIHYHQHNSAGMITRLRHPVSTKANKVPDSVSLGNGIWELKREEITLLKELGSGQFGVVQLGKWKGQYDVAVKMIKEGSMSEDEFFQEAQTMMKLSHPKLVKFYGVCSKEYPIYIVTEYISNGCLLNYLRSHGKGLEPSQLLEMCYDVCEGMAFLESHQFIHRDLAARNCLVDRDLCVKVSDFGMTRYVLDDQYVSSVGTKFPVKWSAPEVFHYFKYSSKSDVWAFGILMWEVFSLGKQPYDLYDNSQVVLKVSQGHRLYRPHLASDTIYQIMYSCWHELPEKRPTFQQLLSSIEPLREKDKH

[22] = target: Kappa-type opioid receptor (Homo sapiens, UniProt P41145); conditions: Compound concentration 10.0 uM
[23] = target: Cyclin-dependent kinase 4 (Homo sapiens) (UniProt P11802)
[24] = target: SNF-related serine/threonine-protein kinase (Homo sapiens) (UniProt Q9NRH2)
Sequence of SNF-related serine/threonine-protein kinase (Homo sapiens) (Q9NRH2 whole entry): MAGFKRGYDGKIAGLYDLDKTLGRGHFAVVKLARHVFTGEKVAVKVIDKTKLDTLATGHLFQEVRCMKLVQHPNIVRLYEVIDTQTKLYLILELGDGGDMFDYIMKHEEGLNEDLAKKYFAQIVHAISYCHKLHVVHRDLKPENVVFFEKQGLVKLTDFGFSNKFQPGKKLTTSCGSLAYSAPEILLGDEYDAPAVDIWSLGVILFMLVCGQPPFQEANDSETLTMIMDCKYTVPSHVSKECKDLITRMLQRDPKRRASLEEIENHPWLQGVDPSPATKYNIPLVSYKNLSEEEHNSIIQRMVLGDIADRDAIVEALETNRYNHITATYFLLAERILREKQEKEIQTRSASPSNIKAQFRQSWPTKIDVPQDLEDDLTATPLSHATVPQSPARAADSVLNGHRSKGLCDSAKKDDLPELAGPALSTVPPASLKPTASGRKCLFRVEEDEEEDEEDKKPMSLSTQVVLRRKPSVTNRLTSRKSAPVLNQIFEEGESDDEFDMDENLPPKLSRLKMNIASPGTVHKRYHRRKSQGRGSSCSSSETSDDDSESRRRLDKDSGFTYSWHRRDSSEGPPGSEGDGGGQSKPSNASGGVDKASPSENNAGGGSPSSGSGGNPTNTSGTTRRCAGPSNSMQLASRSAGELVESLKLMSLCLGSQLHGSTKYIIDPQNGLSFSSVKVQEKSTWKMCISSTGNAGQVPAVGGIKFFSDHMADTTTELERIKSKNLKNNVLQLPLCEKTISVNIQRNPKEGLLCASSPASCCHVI

[25] = system: Epidermal growth factor receptor (Homo sapiens), P00533 [UNDEFINED MUTATION]; remark: listed apart in the source
[26] = target: Tyrosine-protein kinase TXK (Homo sapiens) (UniProt P42681)
[27] = target: Serine/threonine-protein kinase Nek9 (Homo sapiens) (UniProt Q8TD19)
[28] = target: cGMP-dependent protein kinase 1 (Homo sapiens) (UniProt Q13976)
[29] = target: Serine/threonine-protein kinase PAK 5 (Homo sapiens) (UniProt Q9P286)
[30] = system: Tyrosine-protein kinase ABL1 (Homo sapiens), P00519 [F317I]
[31] = target: Serine/threonine-protein kinase B-raf (Homo sapiens) (UniProt P15056)
[32] = target: Dual specificity mitogen-activated protein kinase kinase 4 (Homo sapiens) (UniProt P45985)
[33] = target: Serine/threonine-protein kinase PLK3 (Homo sapiens) (UniProt Q9H4B4)
[34] = target: Microtubule-associated serine/threonine-protein kinase 1 (Homo sapiens) (UniProt Q9Y2H9)
[35] = target: Calcium/calmodulin-dependent protein kinase type II subunit alpha (Homo sapiens) (UniProt Q9UQM7)
[36] = target: Serine/threonine-protein kinase SIK2 (Homo sapiens) (UniProt Q9H0K1)
[37] = target: Serine/threonine-protein kinase TAO2 (Homo sapiens) (UniProt Q9UL54)
[38] = target: Serine/threonine-protein kinase PLK1 (Homo sapiens) (UniProt P53350)
[39] = species: Rattus norvegicus; conditions: Compound concentration 10.0 uM
[40] = target: Serine/threonine-protein kinase TBK1 (Homo sapiens) (UniProt Q9UHD2)
[41] = system: Mast/stem cell growth factor receptor Kit (Homo sapiens), P10721 [V559D]
Sequence of Mast/stem cell growth factor receptor Kit (Homo sapiens), P10721 [V559D] (P10721 whole entry V559D): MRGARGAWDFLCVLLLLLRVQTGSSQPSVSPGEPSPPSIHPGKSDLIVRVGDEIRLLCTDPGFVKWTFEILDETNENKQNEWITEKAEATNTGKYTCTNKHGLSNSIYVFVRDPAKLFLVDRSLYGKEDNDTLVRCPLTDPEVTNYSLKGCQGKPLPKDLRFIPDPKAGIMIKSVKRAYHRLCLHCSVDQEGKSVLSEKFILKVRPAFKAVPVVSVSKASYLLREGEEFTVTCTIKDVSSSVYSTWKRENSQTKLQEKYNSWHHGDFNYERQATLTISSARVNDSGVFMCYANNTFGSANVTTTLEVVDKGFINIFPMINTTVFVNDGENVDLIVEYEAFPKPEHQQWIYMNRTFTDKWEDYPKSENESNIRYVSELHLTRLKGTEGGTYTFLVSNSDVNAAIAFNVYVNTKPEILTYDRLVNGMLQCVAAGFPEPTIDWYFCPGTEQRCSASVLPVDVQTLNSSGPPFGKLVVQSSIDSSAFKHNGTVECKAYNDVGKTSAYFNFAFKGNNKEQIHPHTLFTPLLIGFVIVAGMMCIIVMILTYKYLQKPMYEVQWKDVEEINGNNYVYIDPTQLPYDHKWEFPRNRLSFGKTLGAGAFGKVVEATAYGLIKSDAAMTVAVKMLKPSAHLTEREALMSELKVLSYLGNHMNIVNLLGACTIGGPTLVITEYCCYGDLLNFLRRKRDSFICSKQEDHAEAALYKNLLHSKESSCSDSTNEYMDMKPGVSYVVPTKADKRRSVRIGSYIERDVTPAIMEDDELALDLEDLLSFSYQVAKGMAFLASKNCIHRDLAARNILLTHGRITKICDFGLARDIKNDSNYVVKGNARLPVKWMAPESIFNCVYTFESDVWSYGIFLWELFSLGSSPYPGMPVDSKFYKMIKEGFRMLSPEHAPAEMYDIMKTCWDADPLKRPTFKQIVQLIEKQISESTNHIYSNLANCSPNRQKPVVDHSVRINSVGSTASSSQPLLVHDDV

[42] = target: Non-receptor tyrosine-protein kinase TNK1 (Homo sapiens) (UniProt Q13470)
[43] = target: Phosphatidylinositol 4-phosphate 3-kinase C2 domain-containing subunit beta (Homo sapiens) (UniProt O00750)
[44] = target: Mitogen-activated protein kinase kinase kinase 2 (Homo sapiens) (UniProt Q9Y2U5)
[45] = target: RAC-alpha serine/threonine-protein kinase (Homo sapiens) (UniProt P31749)
[46] = Compound concentration 1000.0 nM
[47] = Compound concentration 100.0 nM

Cc1cc(NC(=O)c2cccc(S(F)(F)(F)(F)F)c2)cc(-n2ccn3nc(-c4cccnc4)cc23)c1 [BAY-309]
residual activity [1, 46]: 100% | residual activity [2, 46]: 66.6% | inhibition [3]: 60% | residual activity [4, 46]: 77.7% | inhibition [5]: 68.7% | residual activity [6, 46]: 70.3% | residual activity [7, 46]: 84.9% | residual activity [8, 46]: 100% | residual activity [9, 46]: 94.9% | inhibition [10]: 62.9% | residual activity [11, 46]: 100% | residual activity [12, 46]: 95.1% | residual activity [13, 46]: 74.6% | residual activity [14, 46]: 35.9% | inhibition [15]: 36.8% | residual activity [16, 46]: 100% | residual activity [17, 46]: 100% | residual activity [18, 46]: 78.6% | residual activity [19, 46]: 100% | residual activity [20, 46]: 87.9% | residual activity [21, 46]: 100% | inhibition [22]: 64.8% | residual activity [23, 46]: 100% | residual activity [24, 46]: 100% | residual activity [25, 46]: 100% | residual activity [26, 46]: 56.2% | residual activity [27, 46]: 100% | residual activity [28, 46]: 100% | residual activity [29, 46]: 100% | residual activity [30, 46]: 100% | residual activity [31, 46]: 43.5% | residual activity [32, 46]: 76% | residual activity [33, 46]: 69.4% | residual activity [34, 46]: 100% | residual activity [35, 46]: 100% | residual activity [36, 46]: 100% | residual activity [37, 46]: 91.3% | residual activity [38, 46]: 95.3% | inhibition [39]: 67.8% | residual activity [40, 46]: 49.7% | residual activity [41, 46]: 73.5% | residual activity [42, 46]: 95% | residual activity [43, 46]: 100% | residual activity [44, 46]: 52.7% | residual activity [45, 46]: 100%

Cc1cc(C)c(-n2ccn3nc(-c4cccnc4)cc23)cc1NC(=O)c1cc(C#N)cc(S(F)(F)(F)(F)F)c1 [BAY-826]
residual activity [1, 47]: 97.5% | residual activity [2, 47]: 84.4% | inhibition [3]: 20.7% | residual activity [4, 47]: 79.5% | inhibition [5]: 64.4% | residual activity [6, 47]: 82.6% | residual activity [7, 47]: 75.9% | residual activity [8, 47]: 32.8% | residual activity [9, 47]: 71.6% | inhibition [10]: 1.95% | residual activity [11, 47]: 76.9% | residual activity [12, 47]: 85.5% | residual activity [13, 47]: 83.5% | residual activity [14, 47]: 91.8% | inhibition [15]: 14.4% | residual activity [16, 47]: 74.9% | residual activity [17, 47]: 98.9% | residual activity [18, 47]: 64.7% | residual activity [19, 47]: 100% | residual activity [20, 47]: 67.3% | residual activity [21, 47]: 76.7% | inhibition [22]: 89.4% | residual activity [23, 47]: 86.2% | residual activity [24, 47]: 100% | residual activity [25, 47]: 72.9% | residual activity [26, 47]: 98.3% | residual activity [27, 47]: 72.2% | residual activity [28, 47]: 100% | residual activity [29, 47]: 83.5% | residual activity [30, 47]: 76.4% | residual activity [31, 47]: 89.4% | residual activity [32, 47]: 74.7% | residual activity [33, 47]: 81.8% | residual activity [34, 47]: 100% | residual activity [35, 47]: 95% | residual activity [36, 47]: 94.2% | residual activity [37, 47]: 48.2% | residual activity [38, 47]: 100% | inhibition [39]: 59.1% | residual activity [40, 47]: 62.8% | residual activity [41, 47]: 45.6% | residual activity [42, 47]: 87.6% | residual activity [43, 47]: 93.4% | residual activity [44, 47]: 86.4% | residual activity [45, 47]: 90.9%
